According to patent publication US12344588B2, “Sulfonamide compounds and use thereof” (Taiho Pharmaceutical Co., Ltd., priority 2017, dated 2025):
Values after ≈ are worked out from the molar mass of the structure shown.

What was measured:
Format in all cases: physicochemical
[1] = Hygroscopicity: moisture adsorption/desorption test; conditions: relative humidity of 95%, 25° C.
Procedure: The moisture adsorption/desorption test was carried out according to the following conditions.
Approximately 10 to 15 mg of the sample was filled in a dedicated quartz holder, and the weight of each sample at each humidity was continuously measured and recorded under the following conditions.

Solubility test = conditions: for solubility at 2 h: 37 °C, thermodynamic from solid; for Solubility: 2 hours
Procedure: About 15 mg of the exemplary sample of the present invention was added to 1 mL of each solvent and was swelled at 37° C. for 2 hours under light resistant condition. After centrifugation, each supernatant was filtered, and 0.7 mL of a mixture of water and acetonitrile (1:1) was added to 0.1 mL of the filtrate.
Following of mobile phase: Control the gradient by mixing the mobile phase A and B as directed in the following table below • Flow rate: 1.0 mL per minutes • Time span of measurement: For 12 minutes after injection

[2] = Stability test, optical purity by chiral HPLC; conditions: 40° C./75% RH (closed and open condition), 24 hours
Procedure: The optical purity was also measured by the following HPLC condition • Detector: UV at 240 nm • Column: […] IE (4.6×250 mm, 5 μm)/Daicel corp. • Column temperature: 40° C. • Mobile phase: n-hexane/ethanol/ethanolamine/acetic acid (65:35:0.5:0.2) • Flow rate: 1.0 mL/min • Injection: 5 μL • Sample temperature: 5° C. • Time span of measurement: 40 min Limit of Quantitation (LOQ): • Compound—RR,RS,SS: 0.05%
The optical purity was measured also with added 0.2% optical isomer.
The solid stability of the exemplary sample of the present invention and the free form obtained above was tested before and after the sample was stored at 40° C./75% RH (closed and open condition) for 24 hours.

SMILES	hygroscopicity: mass change in moisture adsorption/desorption test ([1]; listed as free form)	solubility at 2 h (Solubility test; 50 mM acetate buffer, pH 4, aqueous buffer, Acetate buffer (50 mM, pH 4.0)) [µg/mL]	solubility at 2 h (Solubility test; 0.5% HPMC, aqueous with cosolvent or surfactant or cyclodextrin) [µg/mL]	solubility at 2 h (Solubility test; First fluid for dissolution test, pH 1.2, simulated gastric fluid, pH 1.2, 37° C.) [µg/mL]	solubility at 2 h (Solubility test; Second fluid for dissolution test, pH 6.8, aqueous buffer, pH 6.8, 37° C.) [µg/mL]	solubility at 2 h (Solubility test; water) [µg/mL]	change in the optical purity after storage [2]	hygroscopicity: mass change in moisture adsorption/desorption test ([1]; listed as obtained product)	Solubility (Solubility test; First fluid for dissolution test, pH 1.2, 37° C.) [µg/mL]	Solubility (Solubility test; water, 37° C.) [µg/mL]
Cc1ccc(F)c([C@@H](C)[C@H](NS(=O)(=O)c2ccc(Cl)cc2C(N)=O)c2n[nH]c(=O)o2)c1C [Comparative Example, 5-chloro-2-(N-((1S,2R)-2-(6-fluoro-2,3-dimethylphenyl)-1-(5-oxo-4,5-dihydro-1,3,4-oxadiazol-2-yl)propyl)sulfamoyl)benzamide]	about 3.8%	250 (≈ 518 µM)	190 (≈ 393 µM)	230 (≈ 476 µM)	800 (≈ 1660 µM)	230 (≈ 476 µM)	No significant change	–	–	–
Cc1ccc(F)c([C@@H](C)[C@H](NS(=O)(=O)c2ccc(Cl)cc2C(N)=O)c2n[nH]c(=O)o2)c1C [Exemplary Sample, 5-chloro-2-(N-((1S,2R)-2-(6-fluoro-2,3-dimethylphenyl)-1-(5-oxo-4,5-dihydro-1,3,4-oxadiazol-2-yl)propyl)sulfamoyl)benzamide]	–	–	–	–	–	–	No significant change	about 0.1%	230 (≈ 476 µM)	230 (≈ 476 µM)
